Results taken from patent US20260275368A1, “COUMARIN SYNTHESIS AND USES THEREOF” (BASF SE, priority 2022, published 2026).

Assays:
soybean plants = assay: Rating for plant health of T1 soybean plants; type: in vivo
Method: 12 T1 soybean plants per event and respective controls are potted and grown for 3-4 weeks in the phytochamber (16 h day-und 8 h-night-Rhythm at a temperature of 16° and 22° C. und a humidity of 75%) till the first 2 trifoliate leaves were fully expanded. A general rating of plant health is performed before (and partially after) the infection experiment. Only those plants are selected for inoculation that show, in general, a healthy phenotype. Healthy phenotype means normal growth habit, green, fully expanded green leaves, having no or only minor lesions, no obvious yellowing, leaf drop or other stress-associated phenotypes.

Phakopsora pachyrhizi = assay: Pathogen assay for soybean: susceptibility to soybean rust (diseased leaf area); type: in vivo, Phakopsora pachyrhizi on soybean
Method: 12 T1 soybean plants per event and respective controls are potted and grown for 3-4 weeks in the phytochamber (16 h day-und 8 h-night-Rhythm at a temperature of 16° and 22° C. und a humidity of 75%) till the first 2 trifoliate leaves were fully expanded.
The plants are inoculated with spores of P. pachyrhizi. In order to obtain appropriate spore material for the inoculation, soybean leaves, which are infected with rust 15-20 days ago, are taken 2-3 days before the inoculation and transferred to agar plates (1% agar in H2O). The leaves are placed with their upper side onto the agar, which allowed the fungus to grow through the tissue and to produce very young spores. For the inoculation solution, the spores are knocked off the leaves and are added to a Tween-H2O solution. The counting of spores is performed under a light microscope by means of a Thoma counting chamber. […]
The progression of the soybean rust disease is scored in percent by the estimation of the diseased area (area which was covered by sporulating uredinia) on the backside (abaxial side) of the leaf. […]
At all 11-12 T1 soybean plants per event and 5 independent events per construct were inoculated with spores of Phakopsora pachyrhizi. The macroscopic disease symptoms of soybean against P. pachyrhizi of the inoculated soybean plants were scored 14 days after inoculation. […]

[1] = transgenic soybean accumulating the coumarin, compared with WT

Germination rate (soybean plants; [1])	first trifoliate leaf (soybean plants; [1])	growth phenotype (soybean plants; [1])	older leaves (soybean plants; [1])	Germination rate (soybean plants; in vivo)	first trifoliate leaf (soybean plants; in vivo)	growth phenotype (soybean plants; in vivo)	older leaves (soybean plants; in vivo)	SMILES	reduction of the diseased leaf area in comparison to non-transgenic control plants (Phakopsora pachyrhizi; 59 T1 soybean plants (5 events) accumulating sideretin by expressing S8H+CYP82C4, inoculated with P. pachyrhizi spores, scored 14 days after inoculation, p<0.01)	increase of soybean rust resistance (Phakopsora pachyrhizi; accumulation of sideretin by expression of S8H and CYP82C4 (and F6H1 and CoSy) in T1 soybean, vs 18 wild type controls, 14 days after inoculation, p=0,009)
Slightly	some	Smaller	Yellowing of	–	–	–	–	COc1cc2ccc(=O)oc2cc1O [Scopoletin, scopoletin, reference compound]	–	–
–	–	–	–	like WT	like WT	like WT	Unclear	COc1c(O)c(O)c2oc(=O)ccc2c1O [Sideretin, sideretin]	41%	41%
